Assay results taken from the supplement of paper PMC10307832.

Assays:
Experiment in all cases: relative viability (nuclei count vs DMSO), 5 days (fraction); higher = more cells survive
AGI-6780 = compound: O=C(Nc1cccc(C(F)(F)F)c1)Nc1cc(S(=O)(=O)NC2CC2)ccc1-c1ccsc1 [AGI-6780]
Method in brief: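 Five library-drug doses, separated by factors of √10, were pinned into 1536-well plates holding lung cancer cell lines after an overnight stay at 37 °C. Cells were fixed, permeabilised and Hoechst-stained in one step after 5 days without medium change, then imaged at 4×. Viability compares treated-well with vehicle-well nuclei, counted in MetaXpress, as a median across plates. Passing plates had control CV below 25% and at least one doubling.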

AGI-6780 + Luminespib = compound: O=C(Nc1cccc(C(F)(F)F)c1)Nc1cc(S(=O)(=O)NC2CC2)ccc1-c1ccsc1 [AGI-6780] + CCNC(=O)c1noc(-c2cc(C(C)C)c(O)cc2O)c1-c1ccc(CN2CCOCC2)cc1 [Luminespib] (partner 0.01 µM)
Method in brief: (§1)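 For relative viability, nuclei counts in treated wells were divided by those in vehicle wells. Lung cancer cell lines had been pin-tool dosed in 1536-well plates the day after seeding and cultured for 5 days, then fixed and stained in one step (final 0.05% Triton X-100, 1% formaldehyde, 1 ug/ml Hoechst) and imaged at 4×. Doses were one drug alone or a fixed anchor-drug dose plus five library-drug doses (not always all listed) in √10 steps, and values are duplicate-plate medians.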

AGI-6780 + Foretinib = compound: O=C(Nc1cccc(C(F)(F)F)c1)Nc1cc(S(=O)(=O)NC2CC2)ccc1-c1ccsc1 [AGI-6780] + COc1cc2c(Oc3ccc(NC(=O)C4(C(=O)Nc5ccc(F)cc5)CC4)cc3F)ccnc2cc1OCCCN1CCOCC1 [Foretinib] (partner 0.25 µM)
Method in brief: as §1

AGI-6780 + OSI-027 = compound: O=C(Nc1cccc(C(F)(F)F)c1)Nc1cc(S(=O)(=O)NC2CC2)ccc1-c1ccsc1 [AGI-6780] + COc1cccc2cc(-c3nc([C@H]4CC[C@H](C(=O)O)CC4)n4ncnc(N)c34)[nH]c12 [OSI-027] (partner 0.5 µM)
Method in brief: as §1

AGI-6780 + Tozasertib = compound: O=C(Nc1cccc(C(F)(F)F)c1)Nc1cc(S(=O)(=O)NC2CC2)ccc1-c1ccsc1 [AGI-6780] + Cc1cc(Nc2cc(N3CCN(C)CC3)nc(Sc3ccc(NC(=O)C4CC4)cc3)n2)n[nH]1 [Tozasertib] (partner 0.1 µM)
Method in brief: as §1

AGI-6780 + Dasatinib = compound: O=C(Nc1cccc(C(F)(F)F)c1)Nc1cc(S(=O)(=O)NC2CC2)ccc1-c1ccsc1 [AGI-6780] + Cc1nc(Nc2ncc(C(=O)Nc3c(C)cccc3Cl)s2)cc(N2CCN(CCO)CC2)n1 [Dasatinib] (partner 0.075 µM)
Method in brief: as §1

AGI-6780 + Phenformin = compound: O=C(Nc1cccc(C(F)(F)F)c1)Nc1cc(S(=O)(=O)NC2CC2)ccc1-c1ccsc1 [AGI-6780] + N=C(N)NC(=N)NCCc1ccccc1 [Phenformin] (partner 250 µM)
Method in brief: as §1

AGI-6780 + Trametinib = compound: O=C(Nc1cccc(C(F)(F)F)c1)Nc1cc(S(=O)(=O)NC2CC2)ccc1-c1ccsc1 [AGI-6780] + CC(=O)Nc1cccc(-n2c(=O)n(C3CC3)c(=O)c3c(Nc4ccc(I)cc4F)n(C)c(=O)c(C)c32)c1 [Trametinib] (partner 0.02 µM)
Method in brief: as §1

AGI-6780 + Palbociclib = compound: O=C(Nc1cccc(C(F)(F)F)c1)Nc1cc(S(=O)(=O)NC2CC2)ccc1-c1ccsc1 [AGI-6780] + CC(=O)c1c(C)c2cnc(Nc3ccc(N4CCNCC4)cn3)nc2n(C2CCCC2)c1=O [Palbociclib] (partner 0.5 µM)
Method in brief: as §1

AGI-6780 + AZD7762 = compound: O=C(Nc1cccc(C(F)(F)F)c1)Nc1cc(S(=O)(=O)NC2CC2)ccc1-c1ccsc1 [AGI-6780] + NC(=O)Nc1cc(-c2cccc(F)c2)sc1C(=O)N[C@H]1CCCNC1 [AZD7762] (partner 0.2 µM)
Method in brief: as §1

AGI-6780 + Pemetrexed = compound: O=C(Nc1cccc(C(F)(F)F)c1)Nc1cc(S(=O)(=O)NC2CC2)ccc1-c1ccsc1 [AGI-6780] + Nc1nc2[nH]cc(CCc3ccc(C(=O)N[C@@H](CCC(=O)O)C(=O)O)cc3)c2c(=O)[nH]1 [Pemetrexed] (partner 0.2 µM)
Method in brief: as §1

AGI-6780 + Decitabine = compound: O=C(Nc1cccc(C(F)(F)F)c1)Nc1cc(S(=O)(=O)NC2CC2)ccc1-c1ccsc1 [AGI-6780] + Nc1ncn([C@H]2C[C@H](O)[C@@H](CO)O2)c(=O)n1 [Decitabine] (partner 2 µM)
Method in brief: as §1

AGI-6780 + Vorinostat = compound: O=C(Nc1cccc(C(F)(F)F)c1)Nc1cc(S(=O)(=O)NC2CC2)ccc1-c1ccsc1 [AGI-6780] + O=C(CCCCCCC(=O)Nc1ccccc1)NO [Vorinostat] (partner 1 µM)
Method in brief: as §1

AGI-6780 + Olaparib = compound: O=C(Nc1cccc(C(F)(F)F)c1)Nc1cc(S(=O)(=O)NC2CC2)ccc1-c1ccsc1 [AGI-6780] + O=C(c1cc(Cc2n[nH]c(=O)c3ccccc23)ccc1F)N1CCN(C(=O)C2CC2)CC1 [Olaparib] (partner 8 µM)
Method in brief: as §1

NCI-H1623 showed a relative viability (AGI-6780; 0.08 µM) of 0.967, a relative viability (AGI-6780; 0.253 µM) of 0.953 and a relative viability (AGI-6780; 0.8 µM) of 0.977. The relative viability (AGI-6780; 2.53 µM) was 0.681, the relative viability (AGI-6780; 8 µM) was 0.949 and the relative viability (AGI-6780 + Luminespib; first compound 0.08 µM) was 0.489. The relative viability (AGI-6780 + Luminespib; first compound 0.253 µM) was 0.483, the relative viability (AGI-6780 + Luminespib; first compound 0.8 µM) was 0.575 and the relative viability (AGI-6780 + Luminespib; first compound 2.53 µM) was 0.381. It also gave a relative viability (AGI-6780 + Luminespib; first compound 8 µM) of 0.463, a relative viability (AGI-6780 + Foretinib; first compound 0.08 µM) of 0.789 and a relative viability (AGI-6780 + Foretinib; first compound 0.253 µM) of 0.856. For the same cell line, the relative viability (AGI-6780 + Foretinib; first compound 0.8 µM) was 0.976, the relative viability (AGI-6780 + Foretinib; first compound 2.53 µM) was 0.721 and the relative viability (AGI-6780 + Foretinib; first compound 8 µM) was 0.887. For the same cell line, the relative viability (AGI-6780 + OSI-027; first compound 0.08 µM) was 0.537, the relative viability (AGI-6780 + OSI-027; first compound 0.253 µM) was 0.453 and the relative viability (AGI-6780 + OSI-027; first compound 0.8 µM) was 0.454. It also gave a relative viability (AGI-6780 + OSI-027; first compound 2.53 µM) of 0.374, a relative viability (AGI-6780 + OSI-027; first compound 8 µM) of 0.396 and a relative viability (AGI-6780 + Tozasertib; first compound 0.08 µM) of 0.47. It also gave a relative viability (AGI-6780 + Tozasertib; first compound 0.253 µM) of 0.519, a relative viability (AGI-6780 + Tozasertib; first compound 0.8 µM) of 0.474 and a relative viability (AGI-6780 + Tozasertib; first compound 2.53 µM) of 0.391. It also gave a relative viability (AGI-6780 + Tozasertib; first compound 8 µM) of 0.409, a relative viability (AGI-6780 + Dasatinib; first compound 0.08 µM) of 0.484 and a relative viability (AGI-6780 + Dasatinib; first compound 0.253 µM) of 0.553. The relative viability (AGI-6780 + Dasatinib; first compound 0.8 µM) was 0.619, the relative viability (AGI-6780 + Dasatinib; first compound 2.53 µM) was 0.477 and the relative viability (AGI-6780 + Dasatinib; first compound 8 µM) was 0.489. The relative viability (AGI-6780 + Phenformin; first compound 0.08 µM) was 0.561, the relative viability (AGI-6780 + Phenformin; first compound 0.253 µM) was 0.604 and the relative viability (AGI-6780 + Phenformin; first compound 0.8 µM) was 0.609. The relative viability (AGI-6780 + Phenformin; first compound 2.53 µM) was 0.508 and the relative viability (AGI-6780 + Phenformin; first compound 8 µM) was 0.518.

SW 900 was tested, and the relative viability (AGI-6780; 0.08 µM) was 0.858, the relative viability (AGI-6780; 0.253 µM) was 0.868 and the relative viability (AGI-6780; 0.8 µM) was 1.08. The relative viability (AGI-6780; 2.53 µM) was 0.901, the relative viability (AGI-6780; 8 µM) was 0.935 and the relative viability (AGI-6780 + Trametinib; first compound 0.08 µM) was 1.01. It also gave a relative viability (AGI-6780 + Trametinib; first compound 0.253 µM) of 0.832, a relative viability (AGI-6780 + Trametinib; first compound 0.8 µM) of 0.915 and a relative viability (AGI-6780 + Trametinib; first compound 2.53 µM) of 0.688. It also gave a relative viability (AGI-6780 + Trametinib; first compound 8 µM) of 1.18, a relative viability (AGI-6780 + Palbociclib; first compound 0.08 µM) of 0.629 and a relative viability (AGI-6780 + Palbociclib; first compound 0.253 µM) of 0.527. The relative viability (AGI-6780 + Palbociclib; first compound 0.8 µM) was 0.496, the relative viability (AGI-6780 + Palbociclib; first compound 2.53 µM) was 0.566 and the relative viability (AGI-6780 + Palbociclib; first compound 8 µM) was 0.552. It also gave a relative viability (AGI-6780 + Luminespib; first compound 0.08 µM) of 0.167, a relative viability (AGI-6780 + Luminespib; first compound 0.253 µM) of 0.17 and a relative viability (AGI-6780 + Luminespib; first compound 0.8 µM) of 0.163. It also gave a relative viability (AGI-6780 + Luminespib; first compound 2.53 µM) of 0.185, a relative viability (AGI-6780 + Luminespib; first compound 8 µM) of 0.176 and a relative viability (AGI-6780 + Foretinib; first compound 0.08 µM) of 0.953. For the same cell line, the relative viability (AGI-6780 + Foretinib; first compound 0.253 µM) was 0.763, the relative viability (AGI-6780 + Foretinib; first compound 0.8 µM) was 1.03 and the relative viability (AGI-6780 + Foretinib; first compound 2.53 µM) was 0.81. For the same cell line, the relative viability (AGI-6780 + Foretinib; first compound 8 µM) was 0.917, the relative viability (AGI-6780 + OSI-027; first compound 0.08 µM) was 0.649 and the relative viability (AGI-6780 + OSI-027; first compound 0.253 µM) was 0.684. It also gave a relative viability (AGI-6780 + OSI-027; first compound 0.8 µM) of 0.811, a relative viability (AGI-6780 + OSI-027; first compound 2.53 µM) of 0.415 and a relative viability (AGI-6780 + OSI-027; first compound 8 µM) of 0.741. The relative viability (AGI-6780 + Tozasertib; first compound 0.08 µM) was 0.526, the relative viability (AGI-6780 + Tozasertib; first compound 0.253 µM) was 0.52 and the relative viability (AGI-6780 + Tozasertib; first compound 0.8 µM) was 0.644. It also gave a relative viability (AGI-6780 + Tozasertib; first compound 2.53 µM) of 0.473, a relative viability (AGI-6780 + Tozasertib; first compound 8 µM) of 0.512 and a relative viability (AGI-6780 + Dasatinib; first compound 0.08 µM) of 0.542. The relative viability (AGI-6780 + Dasatinib; first compound 0.253 µM) was 0.675, the relative viability (AGI-6780 + Dasatinib; first compound 0.8 µM) was 0.555 and the relative viability (AGI-6780 + Dasatinib; first compound 2.53 µM) was 0.587. The relative viability (AGI-6780 + Dasatinib; first compound 8 µM) was 0.571, the relative viability (AGI-6780 + Phenformin; first compound 0.08 µM) was 0.547 and the relative viability (AGI-6780 + Phenformin; first compound 0.253 µM) was 0.737. For the same cell line, the relative viability (AGI-6780 + Phenformin; first compound 0.8 µM) was 0.673, the relative viability (AGI-6780 + Phenformin; first compound 2.53 µM) was 0.597 and the relative viability (AGI-6780 + Phenformin; first compound 8 µM) was 0.809. For the same cell line, the relative viability (AGI-6780 + AZD7762; first compound 0.08 µM) was 0.657, the relative viability (AGI-6780 + AZD7762; first compound 0.253 µM) was 0.676 and the relative viability (AGI-6780 + AZD7762; first compound 0.8 µM) was 0.811. The relative viability (AGI-6780 + AZD7762; first compound 2.53 µM) was 0.557, the relative viability (AGI-6780 + AZD7762; first compound 8 µM) was 0.634 and the relative viability (AGI-6780 + Pemetrexed; first compound 0.08 µM) was 0.461. The relative viability (AGI-6780 + Pemetrexed; first compound 0.253 µM) was 0.484, the relative viability (AGI-6780 + Pemetrexed; first compound 0.8 µM) was 0.457 and the relative viability (AGI-6780 + Pemetrexed; first compound 2.53 µM) was 0.524. It also gave a relative viability (AGI-6780 + Pemetrexed; first compound 8 µM) of 0.469, a relative viability (AGI-6780 + Decitabine; first compound 0.08 µM) of 0.454 and a relative viability (AGI-6780 + Decitabine; first compound 0.253 µM) of 0.454. It also gave a relative viability (AGI-6780 + Decitabine; first compound 0.8 µM) of 0.386, a relative viability (AGI-6780 + Decitabine; first compound 2.53 µM) of 0.413 and a relative viability (AGI-6780 + Decitabine; first compound 8 µM) of 0.445. For the same cell line, the relative viability (AGI-6780 + Vorinostat; first compound 0.08 µM) was 0.485, the relative viability (AGI-6780 + Vorinostat; first compound 0.253 µM) was 0.484 and the relative viability (AGI-6780 + Vorinostat; first compound 0.8 µM) was 0.707. The relative viability (AGI-6780 + Vorinostat; first compound 2.53 µM) was 0.548, the relative viability (AGI-6780 + Vorinostat; first compound 8 µM) was 0.586 and the relative viability (AGI-6780 + Olaparib; first compound 0.08 µM) was 0.741. It also gave a relative viability (AGI-6780 + Olaparib; first compound 0.253 µM) of 0.826, a relative viability (AGI-6780 + Olaparib; first compound 0.8 µM) of 0.923 and a relative viability (AGI-6780 + Olaparib; first compound 2.53 µM) of 0.878. It also gave a relative viability (AGI-6780 + Olaparib; first compound 8 µM) of 0.803.
